Drawing on patent publication US10383861B2, “3-(1H-pyrrolo[2,3-C]pyridin-2-yl)-1H-pyrazolo[3,4-C]pyridines and therapeutic uses thereof” (Samumed, LLC, priority 2015, dated 2019), this text covers inhibition and EC50 for 15 compounds.

SMILES strings stand for the structures.

Common to all, as to type: cell-based
One test concerns Wnt activity. The test is described as follows: Wnt activity screening assay, Sp5-Luc reporter gene in SW480 cells. The conditions noted are these: Homo sapiens; for inhibition at 10 µM: SW480, read-out: percent inhibition at 10 μM; for EC50: Sp5-Luc reporter, SW480 cells, overnight incubation. The source says:
The screening assay for Wnt activity is described as follows. Reporter cell lines can be generated by stably transducing cancer cell lines (e.g., colon cancer) or primary cells (e.g., IEC-6 intestinal cells) with a lentiviral construct that includes a Wnt-responsive promoter driving expression of the firefly luciferase gene.
SW480 colon carcinoma cells were transduced with a lentiviral vector expressing luciferase with a human Sp5 promoter consisting of a sequence of eight TCF/LEF binding sites. SW480 cells stably expressing the Sp5-Luc reporter gene and a hygromycin resistance gene were selected by treatment with 150 μg/mL of hygromycin for 7 days. These stably transduced SW480 cells were expanded in cell culture and used for all further screening activities. […] For Sp5-Luc reporter gene assays, the cells were plated at 4,000 cells/well in 384-well plates with medium containing 1% fetal bovine serum and incubated overnight at 37° C. and 5% CO2. Following incubation, 20 μl of BrightGlo luminescence reagent (Promega) was added to each well of the 384-well assay plates. The plates were placed on an orbital shaker for 2 min and then luminescence was quantified using the Envision (Perkin Elmer) plate reader. Readings were normalized to DMSO only treated cells, and normalized activities were utilized for EC50 calculations using the dose-response log (inhibitor) vs. response -variable slope (four parameters) nonlinear regression feature available in GraphPad Prism 5.0 (or Dotmatics).
Background: In a reporter assay the amount or activity of a reporter protein is the signal.

The next test deals with SW480 colon cancer cells. The test is described as follows: Cell viability assay (CellTiter-Blue) in SW480 colon cancer cells. Particulars: Homo sapiens; for EC50: 96 h, SW480 cell viability, four days, CellTiter-Blue; for inhibition at 10 µM: SW480, read-out: percent inhibition at 10 μM. On the procedure: Representative compounds were screened using the following assay procedure to assess the effect on cell viability as described below.
Approximately 2×10^3 SW480 colon cancer cells were seeded into each well and allowed to incubate in the presence or absence of compound for four days at 37° C./5% CO2. Eight replicates of DMSO-treated cells served as controls and cells treated with compound were performed in duplicate.
After incubation, 20 μL of CellTiter-Blue (Promega) was added to each well allowed to incubate for approximately 3 hours. This reagent was a buffered solution which contains resazurin, metabolically active cells were able to reduce rezarurin (blue) into resorufin (pink) which was highly fluorescent. This measured fluorescence was used as a readout for cell viability.
On the technique in general: Resazurin is reduced to fluorescent resorufin, in cell work by metabolically active cells.

Test [1] has as its system primary human fibroblasts derived from IPF patients (LL29 cells). In words: Inhibition of the fibrotic process: αSMA staining in TGF-β1 treated LL29 fibroblasts. Particulars: Fibroblast; for EC50: 96 h, LL29 cells, TGF-β1 20 ng/mL, 4 days, % αSMA positive cells; for inhibition at 10 µM: read-out: percent inhibition at 10 μM. On the procedure: Representative compounds were screened using primary human fibroblasts (derived from IPF patients) treated with TGF-β1 to determine their ability to inhibit the fibrotic process.
LL29 cells are plated at 1,500 cells/well in 80 μL/well F12 medium supplemented with 1% Fetal Bovine Serum. […] Wells treated with TGF-β1 and containing DMSO were used as controls. […] Following incubation for 4 days, SYTOX green nucleic acid stain (Life Technologies [Thermo Fisher Scientific]) was added to the wells at a final concentration of 1 μM and incubated at room temperature for 30 min.

The test system of a further test is IL-6. In words: IL-6 inhibition in LPS-stimulated THP-1 cells (HTRF). The conditions noted are these: Homo sapiens; for inhibition at 10 µM: THP-1, read-out: percent inhibition at 10 μM; for EC50: THP-1 cells, LPS 500 ng/mL, 22 hours, IL6 HTRF. On the procedure: THP-1 cells were cultured in basal media with 1% FBS for 24 hours before the start of the assay. […] THP-1 cells were plated at 5000 cells/well in the 384-well plates and incubated at 37° C. for 2 h. 500 ng/mL of LPS was added after 2 hours and cells were incubated for another 22 hours at 37° C. Plates were spun in a centrifuge for 1 minute at […] and a mixture of anti-IL6 XL665, and anti-IL6 Cryptate diluted in reconstitution buffer (Cisbio Inc.) was added to each well. Following incubation for 3 hrs at room temperature, Homogeneous Time-Resolved Fluorescence (HTRF) was measured using the Envision (Perkin Elmer) at 665 nm and […]. The ratio of fluorescence at 665 nm to 620 nm was used as a readout for IL6 quantification. All samples were processed in duplicate. Readings were normalized to DMSO treated cells and normalized activities were utilized for EC50 calculations using the dose-response log (inhibitor) vs. response -variable slope (four parameters) nonlinear regression feature available in GraphPad Prism 5.0 (or Dotmatics).
In general terms: Time-resolved FRET reads energy transfer from a long-lived donor to a nearby acceptor.

Turning to `CC(C)CC(=O)Nc1cncc(-c2cc3c(-c4cc5c(-c6cccc(F)c6)cncc5[nH]4)n[nH]c3cn2)c1` [Compound 2, N-(5-(3-(4-(3-Fluorophenyl)-1 H-pyrrolo[2,3-c]pyridin-2-yl)-1 H-pyrazolo[3,4-c]pyridin-5-yl)pyridin-3-yl)-3-methylbutanamide], the inhibition (usually how much of the control response was suppressed) at 10 µM was 5.6% in the test with Wnt activity, 25.4% in the test on SW480 colon cancer cells and 37.2% with IL-6. Also, the EC50 (usually the concentration needed to bring the measured effect to its halfway point) was above 10000 nM in the test with Wnt activity, above 10000 nM with SW480 colon cancer cells, 2230 nM in test [1] and above 10 µM in the test on IL-6.
In the case of `CCCCC(=O)Nc1cncc(-c2cc3c(-c4cc5c(-c6ccncc6)cncc5[nH]4)n[nH]c3cn2)c1` [Compound 131, N-(5-(3-(4-(Pyridin-4-yl)-1H-pyrrolo[2,3-c]pyridin-2-yl)-1H-pyrazolo[3,4-c]pyridin-5-yl)pyridin-3-yl)pentanamide], the inhibition at 10 µM in the test with Wnt activity was determined as 13.1%; with SW480 colon cancer cells it was 17.8%; in test [1] it was 8.3%; with IL-6, 20.6%. For the same compound, the EC50 in the test with Wnt activity was above 10000 nM; in the test with SW480 colon cancer cells it was above 10000 nM; in test [1] it was above 10000 nM; in the test with IL-6, above 10 µM.
As for `Cn1cc(-c2cc3c(-c4cc5c(-c6cc(F)cc(CNS(C)(=O)=O)c6)cncc5[nH]4)n[nH]c3cn2)cn1` [Compound 764, N-(3-Fluoro-5-(2-(5-(1-methyl-1H-pyrazol-4-yl)-1H-pyrazolo[3,4-c]pyridin-3-yl)-1H-pyrrolo[2,3-c]pyridin-4-yl)benzyl)methanesulfonamide], the EC50 in the test on Wnt activity is 1030 nM; in the test with SW480 colon cancer cells, above 10000 nM; in test [1], 2420 nM; with IL-6, above 10 µM. The figures for the inhibition at 10 µM in the test on SW480 colon cancer cells and in the test on IL-6 were 9.3% and 20%, respectively.
As to `CC(C)C(=O)Nc1cncc(-c2cc3c(-c4cc5c(-c6ccoc6)cncc5[nH]4)n[nH]c3cn2)c1` [Compound 317, N-(5-(3-(4-(Furan-3-yl)-1H-pyrrolo[2,3-c]pyridin-2-yl)-1H-pyrazolo[3,4-c]pyridin-5-yl)pyridin-3-yl)isobutyramide], the 50% effective concentration (EC50) in the test with Wnt activity is 3650 nM; in the test on SW480 colon cancer cells, above 10000 nM; in test [1], 4880 nM; with IL-6, 1 µM. The inhibition at 10 µM with SW480 colon cancer cells came to 0%.
In the case of `O=C(Nc1cncc(-c2cc3c(-c4cc5ccncc5[nH]4)n[nH]c3cn2)c1)C1CC1` [Compound 272, N-(5-(3-(1H-Pyrrolo[2,3-c]pyridin-2-yl)-1H-pyrazolo[3,4-c]pyridin-5-yl)pyridin-3-yl)cyclopropanecarboxamide], the EC50 is 977 nM in the test with Wnt activity, above 10000 nM with SW480 colon cancer cells, 467 nM in test [1] and 3.14 µM in the test with IL-6. The inhibition at 10 µM in the test with SW480 colon cancer cells is 29.9%.
On to `CN(C)c1cncc(-c2cc3c(-c4cc5c(-c6cccc(F)c6)cncc5[nH]4)n[nH]c3cn2)c1` [Compound 7, 5-(3-(4-(3-Fluorophenyl)-1H-pyrrolo[2,3-c]pyridin-2-yl)-1H-pyrazolo[3,4-c]pyridin-5-yl)-N,N-dimethylpyridin-3-amine], for which the EC50 in the test on Wnt activity is 2330 nM; in the test on SW480 colon cancer cells, 1260 nM; in test [1], 1040 nM; in the test with IL-6, 9.84 µM.
The corresponding values for `c1ncc(-c2cc3c(-c4cc5c(N6CCCCC6)cncc5[nH]4)n[nH]c3cn2)cc1OC1CCCCC1` [Compound 607, 5-(5-(Cyclohexyloxy)pyridin-3-yl)-3-(4-(piperidin-1-yl)-1H-pyrrolo[2,3-c]pyridin-2-yl)-1H-pyrazolo[3,4-c]pyridine] are 1340 nM, 1300 nM, 532 nM and 3.17 µM.
Turning to `CN(C)c1cncc(-c2cc3c(-c4cc5ccncc5[nH]4)n[nH]c3cn2)c1` [Compound 259, 5-(3-(1H-Pyrrolo[2,3-c]pyridin-2-yl)-1H-pyrazolo[3,4-c]pyridin-5-yl)-N,N-dimethylpyridin-3-amine], the EC50 came to 2860 nM with Wnt activity, 820 nM with SW480 colon cancer cells, 606 nM in test [1] and 3.58 µM in the test on IL-6.
The matching figures for `CC(C)(C)CC(=O)Nc1cncc(-c2cc3c(-c4cc5c(-c6ccccc6F)cncc5[nH]4)n[nH]c3cn2)c1` [Compound 72, N-(5-(3-(4-(2-Fluorophenyl)-1H-pyrrolo[2,3-c]pyridin-2-yl)-1H-pyrazolo[3,4-c]pyridin-5-yl)pyridin-3-yl)-3,3-dimethylbutanamide]: 975 nM, 693 nM, 468 nM and 0.805 µM.
The matching figures for `CN(C)Cc1cncc(-c2cc3c(-c4cc5ccncc5[nH]4)n[nH]c3cn2)c1` [Compound 265, 1-(5-(3-(1H-Pyrrolo[2,3-c]pyridin-2-yl)-1H-pyrazolo[3,4-c]pyridin-5-yl)pyridin-3-yl)-N,N-dimethylmethanamine]: 2540 nM, 2650 nM, 1480 nM and 3.11 µM.
Take `Cc1ccncc1-c1cc2c(-c3cc4c(-c5ccc(F)cc5)cncc4[nH]3)n[nH]c2cn1` [Compound 33, 3-(4-(4-Fluorophenyl)-1H-pyrrolo[2,3-c]pyridin-2-yl)-5-(4-methylpyridin-3-yl)-1H-pyrazolo[3,4-c]pyridine]: the EC50 turned out to be 1840 nM in the test on Wnt activity, 1090 nM with SW480 colon cancer cells, 333 nM in test [1] and 4.58 µM in the test with IL-6.
For the compound `CC(C)CC(=O)Nc1cncc(-c2cc3c(-c4cc5c(-c6ccncc6)cncc5[nH]4)n[nH]c3cn2)c1` [Compound 114, 3-Methyl-N-(5-(3-(4-(pyridin-4-yl)-1H-pyrrolo[2,3-c]pyridin-2-yl)-1H-pyrazolo[3,4-c]pyridin-5-yl)pyridin-3-yl)butanamide], the inhibition at 10 µM is 15.1% with Wnt activity, 14.2% with SW480 colon cancer cells, 23% in test [1] and 11.6% in the test with IL-6. In addition, the EC50 in the test on Wnt activity was above 10000 nM; in the test on SW480 colon cancer cells, above 10000 nM; in test [1], above 10000 nM; in the test with IL-6 it was above 10 µM.
In the case of `Cc1ccncc1-c1cc2c(-c3cc4c(-c5ccoc5)cncc4[nH]3)n[nH]c2cn1` [Compound 313, 3-(4-(Furan-3-yl)-1H-pyrrolo[2,3-c]pyridin-2-yl)-5-(4-methylpyridin-3-yl)-1H-pyrazolo[3,4-c]pyridine], the half-maximal effective concentration (EC50) in the test with Wnt activity amounted to 1590 nM; with SW480 colon cancer cells it was 1740 nM; in test [1], 599 nM; with IL-6 it was 4.27 µM.
`Fc1ccccc1-c1cncc2[nH]c(-c3n[nH]c4cnc(-c5ccccn5)cc34)cc12` [Compound 84, 3-(4-(2-Fluorophenyl)-1H-pyrrolo[2,3-c]pyridin-2-yl)-5-(pyridin-2-yl)-1H-pyrazolo[3,4-c]pyridine]: the EC50 in the test with Wnt activity amounted to 1060 nM; in the test on SW480 colon cancer cells, 1290 nM; in test [1] it was 1390 nM; in the test on IL-6, 3.03 µM.
For `c1cc2cc(-c3n[nH]c4cnc(-c5cncc(CNCC6CCCC6)c5)cc34)[nH]c2cn1` [Compound 277, 1-(5-(3-(1H-Pyrrolo[2,3-c]pyridin-2-yl)-1H-pyrazolo[3,4-c]pyridin-5-yl)pyridin-3-yl)-N-(cyclopentylmethyl)methanamine], the EC50 in the test on Wnt activity amounted to 3480 nM; with SW480 colon cancer cells it was 3960 nM; in test [1], 1810 nM; in the test on IL-6 it was 3.58 µM.
